19 compounds from patent publication US20230142274A1 (SIMCERE PHARMACEUTICAL CO., LTD., priority 2020, published 2023) can be followed below.

Read-outs that look alike come from different tables or passages of the source.

One experiment relates to WI-38 cells. Description: Inhibition of human WI-38 embryonic lung cell proliferation (Cell-Titer Glo). To be noted: 3 days incubation, read-out: Anti-Proliferative Activity Against WI-38 cells IC50. The class given is cell-based. The protocol:
Introduction of the experimental principle: After the RAD51 inhibitor to be tested was co-incubated with human embryonic lung cells for a period of time, the influence of the test compound on cell proliferation was measured by a method for counting cell proliferation based on the quantitative measurement of intracellular ATP content.
Materials and Cells: WI-38 cells were purchased from ATCC; fetal bovine serum, 1640 medium and penicillin-streptomycin were purchased from Gibco Inc. (U.S.), 96-well plates were purchased from Corning Inc. (U.S.), and Cell-Titer Glo reagent was purchased from Promega Corporation (U.S.).
Cell culture: WI-38 cells were cultured in an EMEM culture medium containing 10% fetal bovine serum and 1% penicillin-streptomycin at 37° C. in an atmosphere containing 5% CO2. Cells in logarithmic growth phase could be used for experiments.
(§1) Assay of cell proliferation and viability: Cell-Titer Glo reagent was used to measure the inhibitory activities of the compounds on the proliferation of WI-38 cell strain. The concentration of cells was adjusted, and the cells were seeded in a 96-well plate and cultured at 37° C. in an atmosphere containing 5% CO2 for 24 hours. The powder of the compound was dissolved in 100% DMSO to form a 10 mM solution. 10 μl of the solution of the compound was aspirated and transferred into a 96-well compound plate containing 20 μl of DMSO solution in each well for 3-fold dilution and was then formulated to 10 serial dilutions. Thereafter, 2 μl of the solution of the compound was aspirated from the corresponding well and added correspondingly into a 96-well intermediate compound dilution plate containing 78 μl of complete culture medium in each well. The resultant was mixed well, and the plate was centrifuged at 1000 rpm for 1 minute. Finally, 10 μl of the solution of the compound was aspirated from the corresponding well of the 96-well intermediate compound dilution plate, and transferred into the corresponding well of the cell culture plate containing 90 μl of complete culture medium. The final concentration of DMSO was 0.25%. After the addition of the compound, the cells were continued to be incubated for 3 days at 37° C. in an atmosphere containing 5% CO2. Cell-Titer Glo reagent was added to measure cell viability.
% Compound inhibition was calculated and IC50 of the compound was fitted;
(§2) % Compound inhibition=1−100%×(Signal−Bottom)/(Top−Bottom)

Another experiment deals with Daudi cells. Description: Inhibition of human Daudi lymphoma cell proliferation (Cell-Titer Glo). In kind it is cell-based. To be noted: 3 days incubation, read-out: Anti-Proliferative Activity Against Daudi cells IC50. On the procedure: Introduction of the experimental principle: After the RAD51 inhibitor to be tested was co-incubated with cancer cells for a period of time, the influence of the test compound on cell proliferation was measured by a method for counting cell proliferation based on the quantitative measurement of intracellular ATP content.
Materials and Cells: Daudi cells were purchased from ATCC; fetal bovine serum, 1640 medium and penicillin-streptomycin were purchased from Gibco Inc. (U.S.), 96-well plates were purchased from Corning Inc. (U.S.), and Cell-Titer Glo reagent was purchased from Promega Corporation (U.S.).
Cell culture: Daudi cells were cultured in 1640 culture medium containing 10% fetal bovine serum and 1% penicillin-streptomycin at 37° C. in an atmosphere containing 5% CO2. Cells in logarithmic growth phase could be used for experiments.
as §1, with “of Daudi” for “of WI-38”, “solution” for “solution in each well”, “formulated into” for “formulated to”
% Compound inhibition was calculated and IC50 of the compound was filled;
as §2

`CC(C)OC(=O)Nc1ccc(-c2nnc([C@H]3CC[C@H](NC(=O)OC(C)C)CC3)s2)c(S(=O)(=O)C(C)C)c1` [Example 25, isopropyl trans-N-[4-[5-[4-(isopropoxycarbonylamino)cyclohexyl]-1,3,4-thiadiazol-2-yl]-3-isopropylsulfonyl-phenyl]carbamate]: the IC50 (commonly the concentration that inhibits the measured activity by half) was over 25000 nM with WI-38 cells (Homo sapiens, 72 h) and 740 nM with Daudi cells (Homo sapiens, 72 h).

Turning to `CC(C)OC(=O)N[C@H]1CC[C@H](c2ncc(-c3ccc(Nc4cnn(CCF)c4)cc3P3(=O)CCC3)s2)CC1` [Example 104, isopropyl trans-(4-(5-(4-((1-(2-fluoroethyl)-1H-pyrazol-4-yl)amino)-2-(1-oxophosphetan-1-yl)phenyl)thiazol-2-yl)cyclohexyl)carbamate], the half-inhibitory concentration (IC50) in the experiment on WI-38 cells (Homo sapiens, 72 h) is over 25000 nM; in the experiment on Daudi cells (Homo sapiens, 72 h) it was 23 nM.

As to `Cc1cc(Nc2ccc(-c3cnc([C@H]4CC[C@H](NC(=O)OC(C)C)CC4)s3)c(S(=O)(=O)C(C)C)c2)nn1C` [Example 36, isopropyl trans-(4-(5-(4-((1,5-dimethyl-1H-pyrazol-3-yl)amino)-2-(isopropylsulfonyl)phenyl)thiazol-2-yl)cyclohexyl)carbamate], the IC50 in the experiment on WI-38 cells (Homo sapiens, 72 h) worked out at 24600 nM; with Daudi cells (Homo sapiens, 72 h), 77 nM.

On to `CC(C)OC(=O)Nc1ccc(-c2cnc(N3CC4C(C3)C4NC(=O)OC(C)C)s2)c(S(=O)(=O)NC(C)(C)C)c1` (stereo not drawn) [Example 9, isopropyl endo-N-[3-(tert-butylsulfamoyl)-4-[2-[6-(isopropoxycarbonylamino)-3-azabicyclo[3.1.0]hex-3-yl]thiazol-5-yl]phenyl]carbamate], for which the half-inhibitory concentration (IC50) was over 25000 nM with WI-38 cells and 2060 nM in the experiment with Daudi cells.

`Cc1cc(Nc2ccc(-c3cnc([C@H]4CC[C@H](NC(=O)OC(C)C)CC4)s3)c(S(=O)(=O)NC(C)(C)C)c2)n[nH]1` [Example 28, isopropyl trans-(4-(5-(2-(N-(tert-butyl)sulfamoyl)-4-((5-methyl-1H-pyrazol-3-yl)amino)phenyl)thiazol-2-yl)cyclohexyl)carbamate]: the 50% inhibitory concentration (IC50) with WI-38 cells (Homo sapiens, 72 h) was 15000 nM; in the experiment on Daudi cells (Homo sapiens, 72 h), 48 nM.

Take `CC(C)OC(=O)N[C@H]1CC[C@H](c2ncc(-c3ccc(Nc4ccno4)cc3S(=O)(=O)NC(C)(C)C)s2)CC1` [Example 29, isopropyl trans-(4-(5-(2-(N-(tert-butyl)sulfamoyl)-4-(isoxazol-5-ylamino)phenyl)thiazol-2-yl)cyclohexyl)carbamate]: the IC50 with WI-38 cells (Homo sapiens, 72 h) amounted to 18400 nM; with Daudi cells (Homo sapiens, 72 h), 340 nM.

For the compound `CC(C)OC(=O)NC1CCC(c2ncc(-c3ccc(NC(=O)C4Cc5ccccc5CN4)cc3S(=O)(=O)NC(C)(C)C)s2)CC1` (stereo not drawn) [Example 13, isopropyl trans-N-[4-[5-[2-(tert-butylsulfamoyl)-4-(1,2,3,4-tetrahydroisoquinoline-3-carbonylamino)phenyl]thiazol-2-yl]cyclohexyl]carbamate], the concentration for half-maximal inhibition (IC50) with WI-38 cells (Homo sapiens, 72 h) was over 25000 nM; with Daudi cells (Homo sapiens, 72 h), 410 nM.

Turning to `CC(C)OC(=O)N[C@H]1CC[C@H](c2ncc(-c3ccc(Nc4cnn(C)c4)cc3S(=N)(=O)C3CC3)s2)CC1` (stereo partly drawn) [Example 69, isopropyl trans-(4-(5-(2-(cyclopropanesulfonimidoyl)-4-((1-methyl-1H-pyrazol-4-yl)amino)phenyl]thiazol-2-yl)cyclohexyl)carbamate], the IC50 with WI-38 cells (Homo sapiens, 72 h) is over 25000 nM; with Daudi cells (Homo sapiens, 72 h), 30 nM.

`CC(C)OC(=O)N[C@H]1CC[C@H](c2ncc(-c3ccc(NC(=O)NC4(c5ccccc5)CC4)cc3S(=O)(=O)NC(C)(C)C)s2)CC1` [Example 17, isopropyl trans-N-[4-[5-[2-(tert-butylsulfamoyl)-4-[(1-phenylcyclopropyl)carbamoylamino]phenyl]thiazol-2-yl]cyclohexyl]carbamate]: the IC50 is over 25000 nM in the experiment with WI-38 cells (Homo sapiens, 72 h) and 110 nM in the experiment on Daudi cells (Homo sapiens, 72 h).

Regarding `CC(C)OC(=O)N[C@H]1CC[C@H](c2ncc(-c3ccc(NC(=O)COc4ccccc4)cc3S(=O)(=O)NC(C)(C)C)s2)CC1` [Example 15, isopropyl trans-N-[4-[5-[2-(tert-butylsulfamoyl)-4-[(2-phenoxyacetyl)amino]phenyl]thiazol-2-yl]cyclohexyl]carbamate], the IC50 is over 25000 nM with WI-38 cells (Homo sapiens, 72 h) and 280 nM in the experiment on Daudi cells (Homo sapiens, 72 h).

Take `CC(C)OC(=O)Nc1ccc(-c2cnc(N3CCC4(CC3)CN(C(=O)OC(C)C)C4)s2)c(S(=O)(=O)NC(C)(C)C)c1` [Example 8, isopropyl 7-(5-(2-(N-(tert-butyl)sulfamoyl)-4-((isopropoxycarbonyl)amino)phenyl)thiazol-2-yl)-2,7-diazaspiro[3.5]nonane-2-carboxylate]: the IC50 in the experiment on Daudi cells (Homo sapiens, 72 h) was 3950 nM.

Consider `Cc1cc(Nc2ccc(-c3ncc([C@H]4CC[C@@H](NC(=O)OC(C)C)CC4)s3)c(S(=O)(=O)C3CC3)c2)n[nH]1` [Example 91-1, isopropyl cis-(4-(2-(2-(cyclopropylsulfonyl)-4-((5-methyl-1H-pyrazol-3-yl)amino)phenyl)thiazol-5-yl)cyclohexyl)carbamate], for which, in the experiment on Daudi cells (Homo sapiens, 72 h), the IC50 stood at 60 nM.

As for `CC(C)OC(=O)N[C@H]1CC[C@H](c2ncc(-c3ccc(Nc4cccnn4)cc3S(=O)(=O)C(C)C)s2)CC1` [Example 44, isopropyl trans-N-[4-[5-[2-isopropylsulfonyl-4-(pyridazin-3-ylamino)phenyl]thiazol-2-yl]cyclohexyl]carbamate], in the experiment with Daudi cells (Homo sapiens, 72 h), the half-inhibitory concentration (IC50) was determined as 680 nM.

As to `CC(C)OC(=O)Nc1ccc(-c2cnc(N3CC4C(C3)C4NC(=O)OC(C)C)s2)c(S(=O)(=O)NC(C)(C)C)c1` (stereo not drawn) [Example 10, isopropyl exo-N-[3-(tert-butylsulfamoyl)-4-[2-[6-(isopropoxycarbonylamino)-3-azabicyclo[3.1.0]hex-3-yl]thiazol-5-yl]phenyl]carbamate], the IC50 with Daudi cells is 9720 nM.

Turning to `CC(C)OC(=O)N[C@H]1CC[C@H](c2ncc(-c3ccc(Nc4ncco4)cc3S(=N)(=O)C3CC3)s2)CC1` (stereo partly drawn) [Example 99, isopropyl trans-(4-(5-(2-(cyclopropanesulfonimidoyl)-4-(oxazol-2-ylamino)phenyl)thiazol-2-yl)cyclohexyl)carbamate], in the experiment with Daudi cells (Homo sapiens, 72 h), the IC50 was found to be 36 nM.

As for `CC(C)OC(=O)N[C@H]1CC[C@H](c2ncc(-c3ccc(N4CCCO4)cc3S(=O)(=O)C3CC3)s2)CC1` [Example 73, isopropyl trans-N-[4-[5-(2-cyclopropylsulfonyl-4-isoxazolidin-2-yl-phenyl)thiazol-2-yl]cyclohexyl]carbamate], in the experiment on Daudi cells (Homo sapiens, 72 h), the IC50 amounted to 200 nM.

`Cc1cc(Nc2ccc(-c3cnc(C45CCC(NC(=O)OC(C)C)(CC4)CC5)s3)c(S(=O)(=O)C3CC3)c2)n[nH]1` [Example 60]: the IC50 in the experiment with Daudi cells (Homo sapiens, 72 h) is 4 nM.

In the case of `Cc1cc(Nc2ccc(-c3cnc(N4CC5C(C4)C5NC(=O)OC(C)C)s3)c(S(=O)(=O)C3CC3)c2)n[nH]1` (centres unmarked) [Example 109, isopropyl (3-(5-(2-(cyclopropylsulfonyl)-4-((5-methyl-1H-pyrazol-3-yl)amino)phenyl)thiazol-2-yl)-3-azabicyclo[3.1.0]hexanone-6-yl)carbamate], in the experiment on Daudi cells (Homo sapiens, 72 h), the IC50 worked out at 76 nM.

Take `CC(C)OC(=O)N[C@H]1CC[C@H](c2ncc(-c3ccc(Oc4ccccn4)cc3S(=O)(=O)C3CC3)s2)CC1` [Example 83, isopropyl trans-(4-(5-(2-(cyclopropylsulfonyl)-4-(pyridin-2-yloxy)phenyl)thiazol-2-yl)cyclohexyl)carbamate]: the IC50 in the experiment with Daudi cells (Homo sapiens, 72 h) came to 200 nM.
